# Measured values as given in the supplement of paper PMC10307832.
# Compound: CC(C)C[C@@H](C(=O)N[C@H](C(=O)OC1CCCC1)c1ccccc1)[C@H](O)C(=O)NO [Tosedostat] + O=C(CCCCCCC(=O)Nc1ccccc1)NO [Vorinostat] (partner 1 µM)
# Assay: relative viability (nuclei count vs DMSO), 5 days (fraction); higher = more cells survive
# Settings: first compound 0.02 µM
# Procedure, shortened: (§1)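 The day after seeding in 1536-well plates, lung cancer cell lines were treated by pin tool with a single drug, or with a fixed anchor-drug dose together with five library-drug doses (not always all listed) in √10 steps. After 5 days, a combined fix-and-stain solution (final 0.05% Triton X-100, 1% formaldehyde, 1 ug/ml Hoechst) was added. Nuclei counted on 4× images gave relative viability as treated counts over vehicle counts, reported as the median of duplicate plates.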
row,Cell Line,relative viability
1,NCI-H1437,1.04
2,PC-14,0.819
3,CAL-12T,1.05
4,NCI-H1734,0.949
5,EPLC-272H,0.509
6,NCI-H3122,1.02
7,NCI-H2009,0.808
8,NCI-H520,0.737
9,NCI-H1651,0.564
10,NCI-H1993,0.732
11,NCI-H2228,0.615
12,HCC-15,0.941
13,NCI-H1793,0.683
14,EKVX,0.722
15,LC-2-ad,0.835
16,NCI-H1666,1.06
17,NCI-H1944,0.632
18,NCI-H1650,0.51
19,ABC-1,1.33
20,NCI-H358,0.669
21,PC-3 [JPC-3],0.861
22,LOU-NH91,0.983

# Same assay, conditions: first compound 0.06325 µM
row,Cell Line,relative viability
1,NCI-H1437,0.754
2,PC-14,0.653
3,CAL-12T,0.678
4,NCI-H1734,0.757
5,EPLC-272H,0.489
6,NCI-H3122,1.06
7,NCI-H2009,0.659
8,NCI-H520,0.77
9,NCI-H1651,0.609
10,NCI-H1993,0.728
11,NCI-H2228,0.348
12,HCC-15,0.849
13,NCI-H1793,0.72
14,EKVX,0.647
15,LC-2-ad,0.702
16,NCI-H1666,1.16
17,NCI-H1944,0.505
18,NCI-H2085,0.831
19,NCI-H1650,0.641
20,ABC-1,1.29
21,NCI-H358,0.562
22,PC-3 [JPC-3],0.949
23,LOU-NH91,0.932

# Same assay, conditions: first compound 0.2 µM
row,Cell Line,relative viability
1,NCI-H1437,0.976
2,PC-14,0.712
3,CAL-12T,0.656
4,NCI-H1734,0.886
5,EPLC-272H,0.347
6,NCI-H3122,1.46
7,NCI-H2009,0.736
8,NCI-H520,0.59
9,NCI-H1651,0.548
10,NCI-H1993,0.588
11,NCI-H2228,0.548
12,HCC-15,0.826
13,NCI-H1793,0.714
14,EKVX,0.764
15,LC-2-ad,0.7
16,NCI-H1666,1.06
17,NCI-H1944,0.653
18,NCI-H2085,0.748
19,NCI-H1650,0.735
20,ABC-1,0.954
21,NCI-H358,0.478
22,PC-3 [JPC-3],0.656
23,LOU-NH91,0.898

# Same assay, conditions: first compound 0.6325 µM
row,Cell Line,relative viability
1,NCI-H1437,1.12
2,PC-14,0.58
3,CAL-12T,0.572
4,NCI-H1734,0.612
5,EPLC-272H,0.401
6,NCI-H3122,0.879
7,NCI-H2009,0.633
8,NCI-H520,0.839
9,NCI-H1651,0.556
10,NCI-H1993,0.608
11,NCI-H2228,0.25
12,HCC-15,0.757
13,NCI-H1793,0.665
14,EKVX,0.688
15,LC-2-ad,0.688
16,NCI-H1666,1.04
17,NCI-H1944,0.523
18,NCI-H2085,0.897
19,NCI-H1650,0.841
20,ABC-1,0.974
21,NCI-H358,0.313
22,PC-3 [JPC-3],0.606
23,LOU-NH91,0.764

# Same assay, conditions: first compound 2 µM
row,Cell Line,relative viability
1,NCI-H1437,0.958
2,PC-14,0.458
3,CAL-12T,0.685
4,NCI-H1734,0.514
5,EPLC-272H,0.269
6,NCI-H3122,0.954
7,NCI-H2009,0.645
8,NCI-H520,0.761
9,NCI-H1651,0.472
10,NCI-H1993,0.548
11,NCI-H2228,0.236
12,HCC-15,0.745
13,NCI-H1793,0.684
14,EKVX,0.773
15,LC-2-ad,0.512
16,NCI-H1666,1.05
17,NCI-H1944,0.556
18,NCI-H2085,0.74
19,NCI-H1650,0.704
20,ABC-1,0.693
21,NCI-H358,0.264
22,PC-3 [JPC-3],0.561
23,LOU-NH91,0.693

# Compound: CC(C)C[C@@H](C(=O)N[C@H](C(=O)OC1CCCC1)c1ccccc1)[C@H](O)C(=O)NO [Tosedostat] + CCNC(=O)c1noc(-c2cc(C(C)C)c(O)cc2O)c1-c1ccc(CN2CCOCC2)cc1 [Luminespib] (partner 0.01 µM)
# Assay: as above
# Settings: first compound 0.02 µM
# Procedure, shortened: as §1
row,Cell Line,relative viability
1,NCI-H1437,1.13
2,PC-14,0.163
3,CAL-12T,0.364
4,NCI-H1734,0.183
5,EPLC-272H,0.246
6,NCI-H3122,0.0953
7,NCI-H2009,1.12
8,NCI-H520,0.172
9,NCI-H1651,0.787
10,NCI-H1993,0.87
11,NCI-H2228,0.149
12,HCC-15,0.408
13,NCI-H1793,0.166
14,EKVX,0.796
15,LC-2-ad,1.2
16,NCI-H1666,1.02
17,NCI-H1944,0.855
18,NCI-H2085,0.377
19,NCI-H1650,0.185
20,ABC-1,0.622
21,NCI-H358,0.229
22,PC-3 [JPC-3],0.735
23,LOU-NH91,0.377

# Same assay, conditions: first compound 0.06325 µM
row,Cell Line,relative viability
1,NCI-H1437,1.07
2,PC-14,0.197
3,CAL-12T,0.304
4,NCI-H1734,0.197
5,EPLC-272H,0.265
6,NCI-H3122,0.083
7,NCI-H2009,1
8,NCI-H520,0.252
9,NCI-H1651,0.715
10,NCI-H1993,0.736
11,NCI-H2228,0.132
12,HCC-15,0.269
13,NCI-H1793,0.233
14,EKVX,0.884
15,LC-2-ad,1.05
16,NCI-H1666,1.01
17,NCI-H1944,0.599
18,NCI-H2085,0.969
19,NCI-H1650,0.179
20,ABC-1,0.706
21,NCI-H358,0.304
22,PC-3 [JPC-3],0.734
23,LOU-NH91,0.454

# Same assay, conditions: first compound 0.2 µM
row,Cell Line,relative viability
1,NCI-H1437,1.2
2,PC-14,0.16
3,CAL-12T,0.834
4,NCI-H1734,0.194
5,EPLC-272H,0.278
6,NCI-H3122,0.106
7,NCI-H2009,1.05
8,NCI-H520,0.209
9,NCI-H1651,0.981
10,NCI-H1993,1.05
11,NCI-H2228,0.198
12,HCC-15,0.78
13,NCI-H1793,0.322
14,EKVX,0.853
15,LC-2-ad,0.923
16,NCI-H1666,0.969
17,NCI-H1944,0.758
18,NCI-H2085,0.491
19,NCI-H1650,0.205
20,ABC-1,0.596
21,NCI-H358,0.234
22,PC-3 [JPC-3],0.731
23,LOU-NH91,0.313

# Same assay, conditions: first compound 0.6325 µM
row,Cell Line,relative viability
1,NCI-H1437,1.24
2,PC-14,0.207
3,CAL-12T,0.713
4,NCI-H1734,0.229
5,EPLC-272H,0.285
6,NCI-H3122,0.122
7,NCI-H2009,0.97
8,NCI-H520,0.291
9,NCI-H1651,0.828
10,NCI-H1993,0.827
11,NCI-H2228,0.188
12,HCC-15,0.211
13,NCI-H1793,0.245
14,EKVX,0.784
15,LC-2-ad,0.792
16,NCI-H1666,0.994
17,NCI-H1944,0.724
18,NCI-H2085,0.407
19,NCI-H1650,0.19
20,ABC-1,0.647
21,NCI-H358,0.293
22,PC-3 [JPC-3],0.692
23,LOU-NH91,0.306

# Same assay, conditions: first compound 2 µM
row,Cell Line,relative viability
1,NCI-H1437,1.13
2,PC-14,0.127
3,CAL-12T,0.353
4,NCI-H1734,0.232
5,EPLC-272H,0.225
6,NCI-H3122,0.132
7,NCI-H2009,1.04
8,NCI-H520,0.225
9,NCI-H1651,0.582
10,NCI-H1993,0.781
